According to patent publication US7608716B2, “Pyrazolonaphthyridine derivative” (Aska Pharmaceutical Co., Ltd., priority 2002, dated 2009):

Assays:
[1] = tested on: TNF-α production; experiment: Inhibition of TNF-α production in galactosamine- and LPS-stimulation; assay type: in vivo; conditions: Mus musculus; C3H/HeN mice, oral, 1 hour before galactosamine/LPS i.v.; serum TNF-α by ELISA 1 hour later; read-out: Inhibition of TNF-α production ED50: mg/kg orally
Procedure: A suspension of each test compound in 0.5% CMC-Na solution was administered orally to C3H/HeN mice at a dose of 0.10 to 10 mg/kg. One hour later, the animals received intravenously galactosamine at a dose of 800 mg/kg and LPS at a dose 5 μg/kg to raise the induction of TNF-α production. One hour later after the galactosamine- and LPS-administration, amounts of TNF-α in serum samples were measured by ELISA, and ED50 was obtained. Roflumilast and SB207499 were used for the reference compounds in this assay.

[2] = biological target: T1, CYP2D6 (Homo sapiens, UniProt P10635); experiment: Inhibition of drug-metabolizing enzyme CYP2D6 (CYP2D6/AMMC kit); assay type: in vitro ADME; conditions: CYP2D6-expressing microsomes, AMMC substrate, 37° C., 30 minutes; read-out: Inhibition of Drug-Metabolizing Enzymes (IC50; μM) CYP2D6
T1 construct: purchased BD Biosciences, NJ, USA; host or cells: CYP2D6-expressing system microsomes
T1 sequence (P10635 whole entry): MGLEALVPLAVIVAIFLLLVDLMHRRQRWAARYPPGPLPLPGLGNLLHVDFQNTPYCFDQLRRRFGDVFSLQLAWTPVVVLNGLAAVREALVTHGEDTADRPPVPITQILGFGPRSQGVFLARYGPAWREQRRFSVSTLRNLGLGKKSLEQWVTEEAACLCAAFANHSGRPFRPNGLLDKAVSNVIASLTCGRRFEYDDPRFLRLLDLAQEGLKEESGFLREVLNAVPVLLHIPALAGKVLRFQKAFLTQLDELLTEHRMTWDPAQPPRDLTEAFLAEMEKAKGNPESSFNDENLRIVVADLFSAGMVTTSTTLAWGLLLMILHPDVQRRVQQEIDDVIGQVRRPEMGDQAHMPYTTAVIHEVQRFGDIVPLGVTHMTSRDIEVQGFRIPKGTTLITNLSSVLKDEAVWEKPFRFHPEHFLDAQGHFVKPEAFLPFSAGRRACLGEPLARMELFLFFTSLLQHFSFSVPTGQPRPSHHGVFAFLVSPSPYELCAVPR
Procedure: (§1) The inhibitory effect on CYP2D6 and CYP3A4 was determined using High Throughput Inhibitor Screening Kits: CYP2D6/AMMC and CYP3A4/BFC (both from BD Biosciences, NJ, USA). Briefly, each of NADPH regenerating systems, cofactors, and test compounds was dispensed into 96-well plates, followed by addition of each of fluorescent substrates, AMMC (CYP2D6) or BFC (CYP3A4). To each well were added CYP2D6-expressing system microsomes or CYP3A4-expressing system microsomes, and the plates were incubated at 37° C. for 30 minutes, and then read for fluorescent signals (CYP2D6: ex=390 nm, em=460 nm; CYP3A4: ex=409 nm, em=538 nm wherein excitation wavelength: ex and emission wavelength: em). Thus, each inhibitory efficacy on enzymes CYP2D6 and CYP3A4 was determined. Roflumilast was used for the reference compound in this assay.

[3] = tested on: actively sensitized guinea pigs; experiment: Inhibition of antigen-induced immediate asthmatic response (airway resistance, Konzett-Rossler); assay type: in vivo, Hartley guinea pigs; conditions: Cavia porcellus, oral, 60 minutes prior to antigen-challenge, reduction of increase in airway resistance, read-out: Inhibition of Asthmatic response ED50: mg/kg orally
Procedure: Male Hartley outbred guinea pigs were sensitized by administering intraperitoneally physiological saline (0.5 ml) containing ovalbumin (1 mg, antigen) and 5×10^9 inactivated Bordetella pertussis dead cells (adjuvant). Eleven to thirteen days after the first sensitization, 0.05 ml of an ovalbumin solution (1 mg/ml) (ovalbumin is dissolved in physiological saline) was administered to the lateroabdominal region of each guinea pig intracutaneously. An establishment of sensitization was checked relying on cutaneous reaction. Only guinea pigs wherein significant reddening responses occurred 5 to 10 minutes later were employed in the next measurement test for airway resistance.
The guinea pigs (3 animals per group) actively sensitized in the above step (1) were employed to measure for their airway pressure according to Konzett-Rossler method (Arch. Exp. Path. Pharmakol., 195, 71 (1940)).
Thirteen days after the final sensitization, guinea pigs fasted overnight, and were on the next day anesthetized with a pentobarbital solution (30 mg/1.2 ml/kg, dissolved in physiological saline, intraperitoneal administration). After the guinea pigs were fixed in a supine position, their trachea was incised followed by insertion with one port of a 4-port cannula. Among the remaining 3 ports, 2 ports were connected to an artificial respirator (Model 683, Harvard). The animals were ventilated with 10 ml/kg of air per ventilation at a rate of 60 beats/min via the artificial respirator from the cannula. One port remainder was connected to a respiratory amplifier (AR-601G, Nihon Kohden, Japan) via an airflow resistance tube (TV-241T, Nihon Kohden, Japan) and a differential pressure transducer (TP-602T, Nihon Kohden, Japan) connected with a control box (RY-111S, Nihon Kohden, Japan). From a catheter inserted into a left carotid artery, blood pressures were monitored with a blood pressure measurement unit (AP641G, NEC Corp., Japan) via a blood pressure transducer (TP-300T, Nihon Kohden, Japan), and heart rates were recorded on a thermal recorder (WT-685G, Nihon Kohden, Japan), relying on blood pressure pulse waves after being led to a cardiograph unit (AT601G, Nihon Kohden, Japan).
After airway pressure became stable, an ovalbumin solution (1 mg/ml, dissolved in physiological saline) was administered at a dose of 1 ml/kg via a tube with which the right jugular vein of guinea pigs was cannulated.
Each test compound was suspended in 0.5% CMC-Na solution and administered orally with an oral sound at a dose of 0.03 to 20 mg/2 ml/kg 60 minutes prior to the antigen-challenge. Control groups received only 0.5% CMC-Na solution in an equivalent amount. The pentobarbital-anesthetization and tracheal incision were conducted 30 minutes prior to the antigen-challenge.
Each percent reduction of increase in airway resistance (each test compound-administered group versus control group) was calculated according to the equation given below. ED50 was obtained by Probit method.

[4] = tested on: Beagle dogs; experiment: Emetic action on dogs; assay type: in vivo; conditions: oral, 1 mg/kg
Procedure: Beagle dogs received a suspension of each test compound in 0.5% CMC-Na solution orally at a dose of 1 mg/2 mL/kg.

[5] = tested on: lung eosinophil infiltration; experiment: Inhibition of lung eosinophil infiltration (OVA-sensitized, BALF); assay type: in vivo, Hartley guinea-pigs; conditions: Cavia porcellus, guinea-pigs, oral, 1 hour before OVA inhalation, BALF eosinophils at 24 hours, read-out: Inhibition of Lung Eosinophil Infiltration ED50: mg/kg orally
Procedure: Hartley guinea-pigs were sensitized by inhaling twice 1% ovalbumin (OVA) in a physiological saline for 10 minutes with a nebulizer (Atom Medical Corporation, Japan) at an interval of 1 week. The animals were orally given a suspension of test compounds at a dose of 0.03 to 3 mg/2 mL/kg one week after the final sensitization. One hour later, the animals were exposed to antigens by inhalation of 2% OVA in a physiological saline for 5 minutes with a nebulizer. Thirty minutes before the antigen challenge, the animals were intraperitoneally pretreated with pyrilamine at a dose of 10 mg/kg to avoid fatality due to anaphylactic shock. Bronchoalveolar lavage fluid (BALF) samples were collected 24 hours after the exposure by inhalation of antigens, and eosinophils were counted.

[6] = tested on: lung neutrophil infiltration; experiment: Inhibition of lung neutrophil infiltration (LPS inhalation, BALF); assay type: in vivo, Hartley guinea-pigs; conditions: Cavia porcellus, guinea-pigs, oral, 1 hour before LPS inhalation, BALF neutrophils at 24 hours, read-out: Inhibition of Lung Neutrophil Infiltration ED50: mg/kg orally
Procedure: Hartley guinea-pigs were orally received a suspension of test compounds at a dose of 0.03 to 3 mg/2 mL/kg. One hour later, the animals were received 0.1 mg/mL lipopolylsaccharide (LPS) in a physiological saline via an inhalational route with a nebulizer for 30 minutes. Twenty-four hours after the LPS inhalation, BALF samples were collected, and neutrophils were counted.

[7] = biological target: T2, CYP3A4 (Homo sapiens, UniProt P08684); experiment: Inhibition of drug-metabolizing enzyme CYP3A4 (CYP3A4/BFC kit); assay type: in vitro ADME; conditions: CYP3A4-expressing microsomes, BFC substrate, 37° C., 30 minutes; read-out: Inhibition of Drug-Metabolizing Enzymes (IC50; μM) CYP3A4
T2 construct: purchased BD Biosciences, NJ, USA; host or cells: CYP3A4-expressing system microsomes
T2 sequence (P08684 whole entry): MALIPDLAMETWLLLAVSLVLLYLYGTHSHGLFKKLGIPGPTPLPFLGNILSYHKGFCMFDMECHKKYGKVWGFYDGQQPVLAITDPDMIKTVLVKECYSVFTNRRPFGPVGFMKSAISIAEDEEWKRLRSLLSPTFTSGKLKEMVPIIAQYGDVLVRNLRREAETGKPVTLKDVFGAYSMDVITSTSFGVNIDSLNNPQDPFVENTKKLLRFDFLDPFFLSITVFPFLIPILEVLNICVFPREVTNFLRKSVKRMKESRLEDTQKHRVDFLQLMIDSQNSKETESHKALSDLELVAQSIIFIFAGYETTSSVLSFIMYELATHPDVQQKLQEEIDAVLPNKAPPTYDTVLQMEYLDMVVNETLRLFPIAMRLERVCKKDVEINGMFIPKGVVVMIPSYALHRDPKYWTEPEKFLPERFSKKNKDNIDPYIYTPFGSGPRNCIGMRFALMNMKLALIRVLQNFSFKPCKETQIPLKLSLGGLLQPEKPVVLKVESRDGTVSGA
Procedure: as §1

IC50 [2]: 9.1 µM
IC50 [7]: 0.98 µM
SMILES: O=C(Nc1c(Cl)cncc1Cl)c1ccc(OC(F)F)c(OCC2CC2)c1 [Roflumilast, 3-(cyclopropylmethoxy)-N-(3,5-dichloro-4-pyridyl)-4-(difluoromethoxy)benzamide, reference compound]
ED50 [1]: 0.26 mg/kg
ED50 [3]: 0.66 mg/kg
Occurrence of emesis [4]: 2 animals among 3 were afflicted with emetic reactions
ED50 [5]: 0.36 mg/kg
ED50 [6]: 0.98 mg/kg
